Patent US6716829B2, “Aldosterone antagonist and cyclooxygenase-2 inhibitor combination therapy to prevent or treat inflammation-related cardiovascular disorders” (Pharmacia Corporation, priority 2000, dated 2004)

System: marker proteins (osteopontin, ED-1, CD-3, ICAM-1, VCAM-1)
Assay: Assay C: immunohistochemistry of myocardial tissue (osteopontin, ED-1, CD-3, ICAM-1, VCAM-1)
Assay type: in vivo, Male Sprague-Dawley rats
Conditions: aldosterone + salt treated rats; eplerenone 100 mg/kg/day
Procedure: The procedure of Assay B was expanded upon in a further study. […] Myocardial tissue from animals in each treatment group was examined after 7, 14, or 30 days of treatment. […] Lesions were preceded by the expression and progressive upregulation of proinflammatory molecules.
Potassium chloride supplementation was added to the saline solution in order to prevent the potential hypokalemia associated with aldosterone excess.
At the time of the surgery, an Alzet 2002 osmotic minipump (Alza Corp., Palo Alto, Calif.) containing either vehicle (9% ethanol/87% propylene glycol/4% dH2O) or 1.0 mg/mL d-aldosterone (Sigma Chemical, St. Louis, Mo.) was inserted subcutaneously at the nape of the neck. Aldosterone was administered at a dose of 0.75 µg/hour. […] Animals were sacrificed from each group (n=8-13) after 7, 14, or 30 days of treatment.
The equatorial regions of the heart were routinely processed into paraffin with an automated tissue processor (Hypercenter XP, Shandon/Lipshaw Inc., Pittsburgh, Pa.) and embedded into fresh paraffin apical side down (Shandon Embedding Center, Shandon/Lipshaw Inc.). Five and 10 µm sections were cut from each block of tissue using a Leica RM2035 rotary microtome (Leica Inc., Houston, Tex.) and mounted on Superfrost/Plus microscope slides (Fisher Scientific, Pittsburgh, Pa.). […]

| SMILES | Staining in myocardial tissue for marker proteins (immunohistochemistry) |
| --- | --- |
| C[C@]12CCC(=O)C=C1CC[C@@H]1[C@@H]2[C@@H](O)C[C@]2(C=O)[C@@H](C(=O)CO)CC[C@@H]12 [Aldosterone] | Significant expression of osteopontin |
| COC(=O)[C@@H]1CC2=CC(=O)CC[C@]2(C)[C@@]23O[C@@H]2C[C@@]2(C)[C@@H](CC[C@@]24CCC(=O)O4)[C@H]13 [Eplerenone] | markedly blunted |
